Reference: US20160074553A1, “DRESSING FOR COMPROMISED WOUND HEALING” (CONSEJO SUPERIOR DE INVESTIGACIONES CIENTIFICAS (CSIC), priority 2012, published 2016)

How the values were obtained:
[1] = Thermogravimetric analysis (TGA) of polymers and nanoparticle systems; assay type: physicochemical
Experimental: The thermogravimetric analysis (TGA) was carried out under N2 atmosphere in TGA Q500 (TA) equipment between 25 and 600° C. with a heating rate of 10° C./min.
The products were characterized by ATR-FTIR (4000 to 600 cm−1), TGA (25 to 600° C. under nitrogen atmosphere at 10° C./min) and DSC (the scan was carried out at a constant rate of 10° C./min, with a N2 flow of 20 ml/min, with temperatures in the range of −20 to 180° C.) to determine the glass transition temperature of the NP. For the calculation of the Tg, the temperature at which half of the difference in specific heat between the vitreous amorphous and elastomer amorphous states is reached is taken, that is, Tg=½ ΔCp. This point corresponds to the inflection point of the change in slope in the thermogram of the second scan.

[2] = donated by ROVI pharmaceutical laboratories; cited from earlier work
BaF32 cells = assay: BaF32 proliferation assay; assay type: cell-based
Experimental: The measurements of biological activity of the free and encapsulated bemiparin were carried out by cell proliferation assay. For this, BaF32 cells were used, which are a type of lymphocyte B, the cell signalling of which is mediated by the formation of a complex between the bemiparin, the FGF-2 and its corresponding FGFR1c receptor on the cell surface.
Bemiparin forms a ternary complex (FIG. 27) with the fibroblast growth factor (FGF-2) and its corresponding specific membrane receptor (FGFR1c) thus increasing the cellular signalling process corresponding to the proliferation process (Dillen, K., J. Vandervoort, G. Van den Mooter, and A. Ludwig. 2006. Evaluation of ciprofloxacin-loaded Eudragit® RS100 or RL100/PLGA nanoparticles. International Journal of Pharmaceutics 314 (1): 72-82; Eto, T. 2001. A review of the biological properties and clinical implications of adrenomedullin and proadrenomedullin N-terminal 20 peptide (PAMP), hypotensive and vasodilating peptides. Peptides 22 (11): 1693-1711). Given this property, an experiment was designed to verify that the encapsulated bemiparin maintains its biological activity. For this BaF32 cells were used, which are a type of lymphocyte B, the cell signalling of which is modulated by a by a specific bond between the FGF-2 and its corresponding FGFR1c receptor on the cell surface.

## bemiparin
[1]
  T10% (temperature at which 10% of the system has been degraded): 120 °C
[2]
  activity of bemiparin as supplied: 111.3 IU/mg
BaF32 cells; FGF-2, FGFR1c
  effect on cell proliferation / activity of the FGF-2: promoting cell proliferation
BaF32 cells; different concentrations of bemiparin
  dependence of the cellular response on the concentration of bemiparin: independent from the concentration of bemiparin used
